Structures are written as SMILES.

The values below come from patent US20110008258A1, “METHODS RELATING TO BREATHING DISORDERS” (SAMSARA MEDICIN AB, priority 2007, published 2011).

The test system of one data set is EP3R^+/+ mice. Kind of data set: Flow plethysmography after icv PGE2, EP3R+/+ mice. It is filed as in vivo. How it is done: (§1) A Plexiglas chamber (35 ml) was connected to a highly sensitive direct airflow sensor (0-200 ml/min; TRN3100, Kent Scientific Corporation, Litchfield, Conn., USA). The flow signal was amplified by a four-channel amplifier (P/N 770 S/N 5; SENSElab, Somedic Sales, Hörby, Sweden), converted to digital signal, and recorded at 100 Hz by an online computer using DasyLab software (Datalog GmbH & Co. KG, Mönchengladbach, Germany). Respiratory frequency (fR, breaths/min), tidal volume (VT, μl/breath), and minute ventilation (VE, μl/min) were calculated. Chamber temperature was maintained at 30.1±0.1° C. in accordance with the documented thermoneutral range for neonatal mice by immersing the chamber in a thermostat-controlled water bath (49). As described previously, the chamber was calibrated by repeatedly injecting standardized volumes of air (5-200 μl) with preset precision syringes (Hamilton Bonaduz AG, Switzerland) (6). 95% of gas exchange occurred within 35 s of administration, which was verified by CO2 content analyses (Metek CD-3A and S-3A, PA, USA).
(§2) Respiration was examined using flow plethysmography in 9 d-old C57BL/6 mice (n=38) with variable expression of EP3R. After the administration of sevoflurane anesthesia for approximately 60 s, PGE2 (4 nmol in 2-4 μl aCSF) or vehicle was slowly injected into the lateral ventricle using a thin pulled glass pipette attached to polyeethylene tubing. The mouse was then placed immediately into the plethysmograph chamber. After a 10 min recovery period in normoxia, the mouse was exposed to hyperoxic and anoxic challenge as described above. Animal skin temperature was recorded at baseline and at each subsequent minute using a thermistor temperature probe.
(§3) Periods of calm respiration without movement artefact were selected for analysis. Mean fR, VT, and VE values during normoxia and hyperoxia as well as the anoxic response (i.e., hyperpnea, primary apnea, gasping, secondary apnea, and autoresuscitation) were analyzed as described previously (6, the disclosure of which is expressly incorporated herein by reference). Survival was recorded for all animals. Apnea was defined as cessation of breathing for three respiratory cycles. Regularity of breathing was quantified using the coefficient of variation (C.V.) (i.e., SD divided by mean of breath-by-breath interval during 60 periods).

How the values of data set [1] were obtained:
PGE2 and metabolites thereof may persist and may be measured even after more than 72 hours. Half time for PGE2 degradation various considerably pending on the cellular environment. Half-life of PGE2 can vary from a few minutes to several hours. When evaluating PGE2 produced in the body and secreted in urine or other body fluids it is important to also measure its metabolites.

For another data set, the system named is EP3R^−/− mice. In words: Flow plethysmography after icv PGE2, EP3R−/− mice. In kind it is in vivo. On the procedure: as §1, §2, §3
The subject of data set [2] is brainstem spinal-cord preparations from EP3R^+/+ pups. In words: En bloc brainstem-spinal cord preparation, respiratory activity, EP3R+/+. More on the design: species or system mice. The note with it: PGE2 20 μg/l, 2-3 d old EP3R+/+ pups, n=5, reversible. How it is done:
(§4) Brainstem-spinal cord preparations were rapidly isolated from 2 d-old C57BL/6 mice with EP3R^+/+ and EP3R^−/− genotypes as described previously (n=11) (50, 51, both of which are expressly incorporated herein by reference). Respiratory-related activity corresponding to the inspiratory rhythm was monitored at the C4 ventral root through a glass suction electrode, recorded (5 kHz), and analyzed offline. Control recordings were performed for at least 20 min before perfusion with aCSF containing PGE2 followed by an aCSF washout period.
(§5) The brainstem was rostrally decerebrated between the cranial nerve VI roots and the lower border of the trapezoid body so that the pons was removed. The preparation was continuously perfused in a 1.5 ml chamber with artificial cerebrospinal fluid (aCSF): 130 mM NaCl, 3.3 mM KCl, 0.8 mM KH2PO4, 0.8 mM CaCl2, 1.0 mM MgCl2, 26 mM NaHCO3, and 30 mM D-glucose at 28° C. (flow rate, 3-4 ml/min). The solution was continuously equilibrated with 95% O2 and 5% CO2 to pH 7.4 (50, 51).

For data set [3], the system named is brainstem spinal-cord preparations from EP3R^−/− mice. In words: En bloc brainstem-spinal cord preparation, respiratory activity, EP3R−/−. To be noted: PGE2 20 μg/l, n=6. How it is done: as §4, §5
Where [4] appears, read: 9 d-old EP3R+/+ mice, PGE2 icv, hyperoxia (100% O2).
The mark [5] stands for this setting: 9 d-old EP3R+/+ mice, PGE2 icv, normoxia.
[6] abbreviates: 9 d-old EP3R−/− mice, PGE2 icv, hyperoxia (100% O2).
The mark [7] stands for this setting: 9 d-old EP3R−/− mice, PGE2 icv, normoxia.

As for `CCCCC[C@H](O)/C=C/[C@H]1[C@H](O)CC(=O)[C@@H]1C/C=C\CCCC(=O)O` [PGE2, Prostaglandin E2], the “fR, normoxia” value with EP3R^+/+ mice (9 d-old EP3R+/+ mice, PGE2 4 nmol icv, normoxia) worked out at 247 ± 13 breaths/min; with EP3R^−/− mice (9 d-old EP3R−/− mice, PGE2 4 nmol icv, normoxia), 256 ± 10 breaths/min. Also, the “Hyperpnea fR” value with EP3R^+/+ mice (9 d-old EP3R+/+ mice, PGE2 icv, anoxia (100% N2)) stood at 267 ± 11 breaths/min; in the data set with EP3R^−/− mice (9 d-old EP3R−/− mice, PGE2 icv, anoxia (100% N2)), 290 ± 9 breaths/min. Besides, the “VE, hyperoxia” value in the data set on EP3R^+/+ mice (setting [4]) is 745 ± 102 µL/min/g; in the data set on EP3R^−/− mice (setting [6]), 1509 ± 299 µL/min/g. Besides, the “VT, hyperoxia” value was 4.4 ± 1.1 μl/br/g with EP3R^+/+ mice (setting [4]) and 6.7 ± 1.3 μl/br/g with EP3R^−/− mice (setting [6]). Besides, the figures for the “fR, hyperoxia” value in the data set with EP3R^+/+ mice (setting [4]) and with EP3R^−/− mice (setting [6]) were 190 ± 16 breaths/min and 229 ± 9 breaths/min, respectively. Further, the “VE, normoxia” value was 901 ± 154 µL/min/g in the data set on EP3R^+/+ mice (setting [5]) and 1350 ± 129 µL/min/g in the data set on EP3R^−/− mice (setting [7]). The “VT, normoxia” value worked out at 3.7 ± 0.4 μl/br/g with EP3R^+/+ mice (setting [5]) and 5.2 ± 0.5 μl/br/g in the data set on EP3R^−/− mice (setting [7]). Besides, the “gasping response and anoxic survival” value is reported as “did not alter the gasping response or anoxic survival” in the data set on EP3R^+/+ mice (EP3R+/+ mice, PGE2 icv, compared to vehicle) and “did not alter the gasping response or anoxic survival” in the data set on EP3R^−/− mice (EP3R−/− mice, PGE2 icv, compared to vehicle). Moreover, the “apnea frequency and breathing pattern” value in the data set with EP3R^+/+ mice (EP3R+/+ mice, PGE2 icv, normoxia and hyperoxia, vs vehicle) was “induced a significantly greater apnea frequency and irregular breathing pattern”. In addition, in data set [1], the “half-life of PGE2” value lay within 12 to 18 h. Moreover, in the data set with EP3R^−/− mice (EP3R−/− mice, PGE2 icv, normoxia and hyperoxia, vs vehicle), the induction of apneas entry is recorded as “not observed”. For the same compound, the “respiratory rhythm generation, relative to control frequency (fR)” value in data set [2] was 64±5 % of control frequency. The “effect on respiratory activity” value in data set [3] was “did not affect respiratory activity”.
